Experimental data: PMC8434109, “Synthesis and Biological Activity of a Cytostatic Inhibitor of MLLr Leukemia Targeting the DOT1L Protein” (Molecules, 2021)

Experiments:
MV4-11 cells (MLL-AF4) = assay: Cell proliferation and viability, trypan blue counting; format: cell-based, human; settings: Homo sapiens, 360 h; MV4-11 (AF4), 15-day treatment; read-out: EC50 of the proliferation inhibition
MV4-11 cells = assay: Flow cytometry apoptosis analysis (Annexin V-APC/7-AAD); format: cell-based, human
Experimental: A decrease in the S phase of the cell cycle was also observed from 24% (day 8) to 20% (day 10), 13% (day 12).
In a 12-well plate, 2 mL exponentially growing MV4-11 cells were plated with a density of 2 × 10^5 cells/mL. […] Culture media and drugs were replaced every 2–3 days and cells were split back to a density of 2 × 10^5 cells/mL at the same time. Cells were harvested on days 8, 10, 12 and split to allow the analysis of cell cycle and Annexin V staining simultaneously. The apoptosis ratio was detected by an Annexin V-APC/7-AAD double staining assay (SONY 3804610) and cells were prepared according to the manufacturer’s recommendations. Cells for the cell cycle analysis were collected by centrifugation at 500× g for 5 min at 4 °C. The pellets were washed once with cold PBS and then fixed with 70% ethanol on ice for 30 min. Afterwards, the cells were washed once with cold PBS and stained with propidium iodide (Invitrogen P3566) for 30 min at 37 °C. Samples were measured using an Attune NxT acoustic focusing cytometer (Life Technologies), data were analyzed by FlowJo.

MOLM-13 cells (MLL-AF9) = assay: Cell proliferation, trypan blue counting; format: cell-based; settings: Homo sapiens, 360 h; MOLM-13 (AF9), 15-day treatment; read-out: EC50 of the proliferation inhibition
KOPN8 cells (MLL-ENL) = assay: Cell proliferation, trypan blue counting; format: cell-based; settings: Homo sapiens, KOPN-8, 360 h, 15-day treatment, read-out: EC50 of the proliferation inhibition
Experimental: (§1) For assessment of cell proliferation and viability in human cell lines, exponentially growing cells were placed, in triplicate, in 96-well plates at a density of 35,000 cells/well at a final volume of 100 µL. […] The viable cell number was determined every 3–4 days for up to 15 days to 21 days using trypan blue counting using Cellometer Disposable Counting Chambers for the Cellometer Mini Automated Cell Counter.

NOMO-1 cells (MLL-AF9) = assay: Cell proliferation, trypan blue counting; format: cell-based; settings: Homo sapiens, 360 h; NOMO-1 (AF9), 15-day treatment; read-out: EC50 of the proliferation inhibition
Experimental: as §1

recombinant hDOT1L = recombinant hDOT1L (Homo sapiens, UniProt Q8TEK3); assay: AlphaLISA DOT1L enzymatic inhibition assay on purified nucleosomes
H3K79me2 in MOLM13 cells = assay: Western blot of H3K79me2 normalized to total H3; format: cell-based, human; settings: MOLM13, 6 days
Experimental: (§2) Next, we evaluated the effect on the demethylation of H3K79 in MLL-AF9 MOLM13 cells (Figure 7B).
(§3) The non-adherent cell lines MV4-11, MOLM-13, and KOPN8 exponentially growing cells were plated in 12-well plates (1 plate for each experiment) at a rate of 500,000 cells per well at a final volume of 2 mL. The cells were incubated in the presence of increasing inhibitor concentrations (0.1, 0.32, 1, 3.2, 10 µM). The cells (1 to 2 million) were harvested at the time chosen according to the line in order to extract the histones and the RNAs.
(§4) For the isolation of histones from cells, 1 to 2 million cells were collected, after exposure to the chosen treatment, by centrifugation at 200× g and lysed by 5 min of incubation on ice in 250 μL of the nuclear extraction buffer (10 mM Tris-HCl, 10 mM MgCl2, 25 mM KCl, 1% Triton X-100, 8.6% sucrose, Roche Protease inhibitor tablet 1836145). The nuclei were collected by centrifugation at 600× g for 5 min at 4 °C. The supernatant was removed and the histones were extracted for 1 h with 0.4 N cold sulfuric acid. The extracts were clarified by centrifugation at 10,000× g for 10 min at 4 °C and transferred to a microcentrifuge tube containing a 10× volume of ice-cold acetone. The histones were precipitated at ‒20 °C overnight and recovered by centrifugation at 1500× g for 10 min in the form of a pellet and then resuspended in 80 μL of water. Histones were quantified by absorbance measured by a nanodrop at 276 nm.
(§5) After extraction, the histones (500ng) were separated on 4–20% Tris-Glycine gels (Invitrogen) and transferred onto a nitrocellulose membrane ([…]) using the iBlot® Gel Transfer Stacks Nitrocellulose kit Mini (Invitrogen). After blocking nonspecific sites for 1 h at room temperature in a solution of 1X TBS at 5% milk, the membrane was incubated with rabbit anti-H3K79me2 (ab3594, 1/1000) or anti-H3 (ab1791)1/1000) overnight at 4 °C or 1 h at RT. The membrane was then washed three times for 5 min in a 1X TBS solution containing 0.05% Tween20 and was then incubated with an HRP anti-rabbit secondary antibody (NA934V, 1/10,000) for 1 h at RT. […]

H3K79me2 in MV4-11 cells = assay: Western blot of H3K79me2 normalized to total H3; format: cell-based, human; settings: MV4-11, 4 days, increasing concentrations
Experimental: as §2, §3, §4, §5

Sequence of recombinant hDOT1L (Q8TEK3 1-416): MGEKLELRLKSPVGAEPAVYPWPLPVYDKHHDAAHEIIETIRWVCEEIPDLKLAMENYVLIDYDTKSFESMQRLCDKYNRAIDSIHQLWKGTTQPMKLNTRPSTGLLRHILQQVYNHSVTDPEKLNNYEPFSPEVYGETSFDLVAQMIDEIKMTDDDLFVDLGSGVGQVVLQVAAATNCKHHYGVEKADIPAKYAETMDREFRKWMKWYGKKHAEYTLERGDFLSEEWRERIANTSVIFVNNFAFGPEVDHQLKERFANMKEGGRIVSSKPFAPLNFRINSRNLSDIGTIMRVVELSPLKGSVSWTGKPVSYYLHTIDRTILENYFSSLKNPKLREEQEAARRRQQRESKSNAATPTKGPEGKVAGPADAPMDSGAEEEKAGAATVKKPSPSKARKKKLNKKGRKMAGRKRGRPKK

EC50 (MV4-11 cells (MLL-AF4)): 93 ± 4 nM | EC50 (MOLM-13 cells (MLL-AF9)): 120 ± 10 nM | IC50 (recombinant hDOT1L): 4.7 nM
SMILES: CC(C)[C@H](CCCNC(=O)Nc1ccc(C(C)(C)C)cc1)N[C@H]1C[C@@H](n2cnc3c(N)ncnc32)[C@H](O)[C@@H]1O [Dia2, 1-((S)-4-(((1S,2R,3S,4R)-4-(6-amino-9H-purin-9-yl)-2,3-dihydroxycyclopentyl)amino)-5-methylhexyl)-3-(4-(tert-butyl)phenyl)urea]
effect on apoptosis (MV4-11 cells; MV4-11): very little apoptosis | apoptotic (Annexin V positive) cells (MV4-11 cells; MV4-11, 1 µM, day 8): 23% | apoptotic (Annexin V positive) cells (MV4-11 cells; MV4-11, 1 µM, day 10): 20% | apoptotic (Annexin V positive) cells (MV4-11 cells; MV4-11, 3.2 µM, day 8): 35% | apoptotic (Annexin V positive) cells (MV4-11 cells; MV4-11, 3.2 µM, day 10): 38% | EC50 (KOPN8 cells (MLL-ENL)): 63 ± 2 nM | EC50 (NOMO-1 cells (MLL-AF9)): 660 ± 20 nM | inhibition of the H3K79me2 mark (H3K79me2 in MOLM13 cells): as efficient as EPZ-5676 | H3K79me2 methylation compared to DMSO treated cells (H3K79me2 in MV4-11 cells): efficient decrease in methylation
